Measured values published in ChEMBL document CHEMBL3046894, “Synthesis and Herbicidal Activity of Pyrimidinyl Salicylic and Thiosalicylic Acids” (J Pestic Sci, 1996).
Active and inactive are the calls of the source. No cut-off for these calls is given here.

How the values were obtained:
[1] = test system: Echinochloa crus-galli; experiment: Pre-emergence herbicidal activity against Echinochloa crus-galli (barnyard grass) assessed as mortality at 6.3 g a.i/10 a; type: functional
[2] = test system: Ipomoea lacunosa; experiment: Post-emergence herbicidal activity against Ipomoea lacunosa assessed as mortality at 6.3 g a.i/10 a applied 11 days after germination as foliar spray; type: functional; conditions: 264 h
[3] = test system: Abutilon theophrasti; experiment: Post-emergence herbicidal activity against Abutilon theophrasti (velvetleaf) assessed as mortality at 1.6 g a.i/10 a applied 11 days after germination as foliar spray; type: functional; conditions: 264 h
[4] = test system: Abutilon theophrasti; experiment: Post-emergence herbicidal activity against Abutilon theophrasti (velvetleaf) assessed as mortality at 6.3 g a.i/10 a applied 11 days after germination as foliar spray; type: functional; conditions: 264 h
[5] = (§1) Pre-emergence phytotoxicity against Gossypium hirsutum (cotton) assessed as mortality at 6.3 g a.i/10 a; type: organism-based; conditions: in vivo, 6.3 g a.i/10 a, read-out: Activity
[6] = test system: Gossypium hirsutum; experiment: Pre-emergence phytotoxicity against Gossypium hirsutum (cotton) assessed as mortality at 1.6 g a.i/10 a; type: organism-based; conditions: in vivo, other
[7] = (§2) Pre-emergence phytotoxicity against Glycine max (soybean) assessed as mortality at 1.6 g a.i/10 a; type: organism-based; conditions: in vivo, 1.6 g a.i/10 a, read-out: Activity
[8] = (§3) Pre-emergence phytotoxicity against Glycine max (soybean) assessed as mortality at 6.3 g a.i/10 a; type: organism-based; conditions: in vivo, 6.3 g a.i/10 a
[9] = Pre-emergence phytotoxicity against Zea mays (maize) assessed as mortality at 1.6 g a.i/10 a; type: organism-based; conditions: in vivo, 1.6 g a.i/10 a
[10] = test system: Zea mays; experiment: Pre-emergence phytotoxicity against Zea mays (maize) assessed as mortality at 6.3 g a.i/10 a; type: organism-based; conditions: in vivo, other
[11] = test system: Gossypium hirsutum; experiment: (§4) Post-emergence phytotoxicity against Gossypium hirsutum (cotton) assessed as mortality at 1.6 g a.i/10 a applied 11 days after germination as foliar spray; type: organism-based; conditions: in vivo, other, 264 h
[12] = (§5) Post-emergence phytotoxicity against Gossypium hirsutum (cotton) assessed as mortality at 6.3 g a.i/10 a applied 11 days after germination as foliar spray; type: organism-based; conditions: in vivo, 6.3 g a.i/10 a
[13] = test system: Glycine max; experiment: Post-emergence phytotoxicity against Glycine max (soybean) assessed as mortality at 6.3 g a.i/10 a applied 11 days after germination as foliar spray; type: organism-based; conditions: in vivo, other, 264 h
[14] = test system: Glycine max; experiment: (§6) Post-emergence phytotoxicity against Glycine max (soybean) assessed as mortality at 1.6 g a.i/10 a applied 11 days after germination as foliar spray; type: organism-based; conditions: in vivo, other, 264 h
[15] = test system: Zea mays; experiment: (§7) Post-emergence phytotoxicity against Zea mays (maize) assessed as mortality at 1.6 g a.i/10 a applied 11 days after germination as foliar spray; type: organism-based; conditions: in vivo, other, 264 h
[16] = test system: Echinochloa crus-galli; experiment: Post-emergence herbicidal activity against Echinochloa crus-galli (barnyard grass) assessed as mortality at 1.6 g a.i/10 a applied 11 days after germination as foliar spray; type: functional; conditions: 264 h
[17] = test system: Echinochloa crus-galli; experiment: Post-emergence herbicidal activity against Echinochloa crus-galli (barnyard grass) assessed as mortality at 6.3 g a.i/10 a applied 11 days after germination as foliar spray; type: functional; conditions: 264 h
[18] = test system: Xanthium strumarium; experiment: Pre-emergence herbicidal activity against Xanthium strumarium (cocklebur) assessed as mortality at 1.6 g a.i/10 a; type: functional; conditions: for mortality at 16 g/ha: Xanthium strumarium, pre-emergence
[19] = test system: Xanthium strumarium; experiment: Pre-emergence herbicidal activity against Xanthium strumarium (cocklebur) assessed as mortality at 6.3 g a.i/10 a; type: functional
[20] = test system: Ipomoea lacunosa; experiment: Pre-emergence herbicidal activity against Ipomoea lacunosa assessed as mortality at 1.6 g a.i/10 a; type: functional; conditions: for mortality at 16 g/ha: Ipomoea lacunosa, pre-emergence
[21] = test system: Ipomoea lacunosa; experiment: Pre-emergence herbicidal activity against Ipomoea lacunosa assessed as mortality at 6.3 g a.i/10 a; type: functional
[22] = test system: Abutilon theophrasti; experiment: Pre-emergence herbicidal activity against Abutilon theophrasti (velvetleaf) assessed as mortality at 1.6 g a.i/10 a; type: functional
[23] = test system: Abutilon theophrasti; experiment: Pre-emergence herbicidal activity against Abutilon theophrasti (velvetleaf) assessed as mortality at 6.3 g a.i/10 a; type: functional
[24] = test system: Echinochloa crus-galli; experiment: Pre-emergence herbicidal activity against Echinochloa crus-galli (barnyard grass) assessed as mortality at 1.6 g a.i/10 a; type: functional
[25] = test system: Gossypium hirsutum; experiment: as §1; type: organism-based; conditions: in vivo, other
[26] = test system: Glycine max; experiment: as §2; type: organism-based; conditions: in vivo, other
[27] = test system: Glycine max; experiment: as §3; type: organism-based; conditions: in vivo, other
[28] = as §4; type: organism-based; conditions: in vivo, 1.6 g a.i/10 a
[29] = test system: Gossypium hirsutum; experiment: as §5; type: organism-based; conditions: in vivo, other, 264 h
[30] = test system: Zea mays; experiment: Post-emergence phytotoxicity against Zea mays (maize) assessed as mortality at 6.3 g a.i/10 a applied 11 days after germination as foliar spray; type: organism-based; conditions: in vivo, other, 264 h
[31] = test system: Ipomoea lacunosa; experiment: Post-emergence herbicidal activity against Ipomoea lacunosa assessed as mortality at 1.6 g a.i/10 a applied 11 days after germination as foliar spray; type: functional; conditions: 264 h
[32] = test system: Xanthium strumarium; experiment: Post-emergence herbicidal activity against Xanthium strumarium (cocklebur) assessed as mortality at 1.6 g a.i/10 a applied 11 days after germination as foliar spray; type: functional; conditions: 264 h
[33] = test system: Xanthium strumarium; experiment: Post-emergence herbicidal activity against Xanthium strumarium (cocklebur) assessed as mortality at 6.3 g a.i/10 a applied 11 days after germination as foliar spray; type: functional; conditions: 264 h
[34] = as §6; type: organism-based; conditions: in vivo, 1.6 g a.i/10 a
[35] = as §7; type: organism-based; conditions: in vivo, 1.6 g a.i/10 a
[36] = test system: Cyperus iria; experiment: Pre-emergence herbicidal activity against Cyperus iria assessed as growth inhibition at 25 g a.i/10 a; type: functional, organism-based
[37] = test system: Chenopodium album; experiment: Pre-emergence herbicidal activity against Chenopodium album assessed as growth inhibition at 25 g a.i/10 a; type: functional, organism-based
[38] = test system: Amaranthus retroflexus; experiment: Pre-emergence herbicidal activity against Amaranthus retroflexus assessed as growth inhibition at 25 g a.i/10 a; type: functional, organism-based
[39] = test system: Persicaria nodosa; experiment: Pre-emergence herbicidal activity against Persicaria nodosa assessed as growth inhibition at 25 g a.i/10 a; type: functional, organism-based
[40] = test system: Digitaria sanguinalis; experiment: Pre-emergence herbicidal activity against Digitaria sanguinalis (hairy crabgrass) assessed as growth inhibition at 25 g a.i/10 a; type: functional, organism-based
[41] = test system: Echinochloa crus-galli; experiment: Pre-emergence herbicidal activity against Echinochloa crus-galli (barnyard grass) assessed as growth inhibition at 25 g a.i/10 a; type: functional, organism-based
[42] = test system: Cyperus iria; experiment: Post-emergence herbicidal activity against Cyperus iria assessed as growth inhibition at 25 g a.i/10 a applied 11 days after germination as foliar spray; type: functional, organism-based
[43] = test system: Chenopodium album; experiment: Post-emergence herbicidal activity against Chenopodium album assessed as growth inhibition at 25 g a.i/10 a applied 11 days after germination as foliar spray; type: functional, organism-based
[44] = test system: Amaranthus retroflexus; experiment: Post-emergence herbicidal activity against Amaranthus retroflexus assessed as growth inhibition at 25 g a.i/10 a applied 11 days after germination as foliar spray; type: functional, organism-based
[45] = test system: Persicaria nodosa; experiment: Post-emergence herbicidal activity against Persicaria nodosa assessed as growth inhibition at 25 g a.i/10 a applied 11 days after germination as foliar spray; type: functional, organism-based
[46] = test system: Digitaria sanguinalis; experiment: Post-emergence herbicidal activity against Digitaria sanguinalis (hairy crabgrass) assessed as growth inhibition at 25 g a.i/10 a applied 11 days after germination as foliar spray; type: functional, organism-based
[47] = test system: Echinochloa crus-galli; experiment: Post-emergence herbicidal activity against Echinochloa crus-galli (barnyard grass) assessed as growth inhibition at 25 g a.i/10 a applied 11 days after germination as foliar spray; type: functional, organism-based
[48] = Abutilon theophrasti, pre-emergence

Structure (SMILES): COc1cc(OC)nc(Sc2cccc(OC(C)C)c2C(=O)O)n1
- Activity [1]: <50%
- mortality at 63 g/ha [2]: > 90%
- mortality at 16 g/ha [3]: > 90%
- mortality at 63 g/ha [4]: > 90%
- mortality [5]: < 50%
- Activity [6]: < 50%
- mortality [7]: < 50%
- mortality ([8]; read-out: Activity): < 50%
- mortality ([9]; read-out: Activity): < 50%
- Activity [10]: < 50%
- Activity [11]: Non-toxic
- mortality at 264 h [12]: > 90%
- Activity [13]: Toxic
- Activity [14]: Toxic
- Activity [15]: Toxic
- mortality at 16 g/ha [16]: < 5%
- mortality at 63 g/ha [17]: < 5%
- Activity [18]: <50%
- Activity [19]: <50%
- Activity [20]: <50%
- Activity [21]: <50%
- Activity [22]: <50%
- Activity [23]: <50%
- Activity [24]: <50%

Structure (SMILES): COc1cc(OC)nc(Sc2cccc(OC)c2C(=O)O)n1
- Activity [1]: >90%
- mortality at 63 g/ha [4]: > 90%
- Activity [25]: Non-toxic
- Activity [6]: Non-toxic
- Activity [26]: Toxic
- Activity [27]: Toxic
- mortality ([9]; read-out: Activity): > 90%
- Activity [10]: > 90%
- mortality at 264 h [28]: < 5%
- Activity [29]: Non-toxic
- Activity [13]: Toxic
- Activity [14]: Toxic
- Activity [15]: Toxic
- Activity [30]: Toxic
- Activity [24]: >90%

Structure (SMILES): CCCOc1cccc(Sc2nc(OC)cc(OC)n2)c1C(=O)O
- Activity [1]: <50%
- mortality at 16 g/ha [31]: < 5%
- mortality at 63 g/ha [2]: < 5%
- Activity [25]: Non-toxic
- Activity [6]: Non-toxic
- mortality [7]: < 50%
- mortality ([8]; read-out: Activity): < 50%
- mortality ([9]; read-out: Activity): < 50%
- Activity [10]: < 50%
- Activity [11]: Non-toxic
- Activity [29]: Toxic
- Activity [13]: Toxic
- Activity [14]: Non-toxic
- Activity [15]: Non-toxic
- Activity [30]: Toxic
- mortality at 16 g/ha [32]: < 5%
- mortality at 16 g/ha [16]: < 5%
- mortality at 63 g/ha [17]: < 5%
- Activity [18]: <50%
- Activity [19]: <50%
- Activity [20]: <50%
- Activity [21]: <50%
- Activity [22]: <50%
- Activity [24]: <50%

Structure (SMILES): COc1cc(OC)nc(Oc2cccc(I)c2C(=O)O)n1
- mortality at 63 g/ha ([1]; Echinochloa crus-galli, pre-emergence): > 90%
- mortality at 63 g/ha [33]: > 90%
- mortality at 16 g/ha [31]: > 90%
- mortality at 63 g/ha [2]: > 90%
- mortality at 16 g/ha [3]: > 90%
- mortality at 63 g/ha [4]: > 90%
- Activity [25]: Non-toxic
- Activity [6]: Non-toxic
- Activity [26]: Toxic
- mortality ([8]; read-out: mortality): > 90%
- mortality ([9]; read-out: mortality): > 90%
- Activity [11]: Toxic
- Activity [29]: Toxic
- mortality at 264 h [34]: > 90%
- mortality at 264 h [35]: > 90%
- mortality at 63 g/ha [17]: > 90%
- growth inhibition (GI) [36]: Active
- growth inhibition (GI) [37]: Active
- growth inhibition (GI) [38]: Active
- growth inhibition (GI) [39]: Active
- growth inhibition (GI) [40]: Active
- growth inhibition (GI) [41]: Active
- growth inhibition (GI) [42]: Active
- growth inhibition (GI) [43]: Active
- growth inhibition (GI) [44]: Active
- growth inhibition (GI) [45]: Active
- growth inhibition (GI) [46]: Active
- growth inhibition (GI) [47]: Active
- mortality at 16 g/ha [18]: < 5%
- mortality at 16 g/ha [20]: < 5%
- mortality at 16 g/ha [22, 48]: > 90%
- mortality at 63 g/ha [23, 48]: > 90%

Structure (SMILES): COc1cc(OC)nc(Oc2cccc(C(F)(F)F)c2C(=O)O)n1
- mortality at 63 g/ha [33]: > 90%
- mortality at 63 g/ha [2]: > 90%
- mortality at 16 g/ha [3]: > 90%
- mortality at 63 g/ha [4]: > 90%
- Activity [25]: Non-toxic
- Activity [6]: Non-toxic
- Activity [26]: Toxic
- Activity [27]: Toxic
- mortality ([9]; read-out: mortality): > 90%
- Activity [11]: Toxic
- Activity [29]: Toxic
- mortality at 264 h [34]: > 90%
- mortality at 264 h [35]: > 90%
- growth inhibition (GI) [36]: Active
- growth inhibition (GI) [37]: Active
- growth inhibition (GI) [38]: Active
- growth inhibition (GI) [39]: Active
- growth inhibition (GI) [40]: Active
- growth inhibition (GI) [41]: Active
- growth inhibition (GI) [42]: Active
- growth inhibition (GI) [43]: Active
- growth inhibition (GI) [44]: Active
- growth inhibition (GI) [45]: Active
- growth inhibition (GI) [46]: Active
- growth inhibition (GI) [47]: Active
- mortality at 16 g/ha [18]: < 5%
- mortality at 63 g/ha ([19]; Xanthium strumarium, pre-emergence): < 5%
- mortality at 16 g/ha [20]: < 5%
